Data reported in patent US20260055088A1, “HETEROCYCLIC COMPOUND, METHOD FOR PREPARING SAME, AND PHARMACEUTICAL USE THEREOF” (Jiangsu Hengrui Pharmaceuticals Co., Ltd., priority 2022, published 2026).
In brackets after ≈: the same amount, converted by molar mass. Where two headings read alike, the source gives them in different places.

How the values were obtained:
[1] = target: Nav1.8 ion channel stably expressed on HEK293 cells (Homo sapiens (Human), UniProt Q9Y5Y9); assay: Inhibitory activity against Nav1.8, manual patch clamp; format: cell-based; details: resting protocol (-80 mV to 10 mV), 1 μM TTX, read-out: IC50 for the inhibition of Nav1.8 channel activity
[2] = Solubility in FassIF and FessIF solutions; format: physicochemical; details: thermodynamic from solid, 37° C.
Description: Reagents: dimethyl sulfoxide (chromatographically pure, Sigma-Aldrich, Cat. No. 472301-4X4L), ethanol (chromatographically pure, CNW, Cat. No. 4.016362.4000), acetonitrile (chromatographically pure, FISHER, Cat. No. A998-4), NaH2PO4·2H2O (analytically pure, Sinopharm Chemical Reagent Co., Ltd., Cat. No. 20040717), ammonium acetate (chromatographically pure, ALADDIN, Cat. No. 17836-250G), FaSSIF/FeSSIF/FaSSGF powder (Biorelevant, Cat. No. FFF02), FaSSIF buffer concentrate (Biorelevant, Cat. No. FASBUF), FeSSIF buffer concentrate (Biorelevant, Cat. No. FESBUF), and ultrapure water (made in-house using an ELGA CHORUS laboratory water purification system).
Instrument: Agilent 1200 DAD liquid chromatograph (Agilent, U.S.)
FaSSIF solution: 2.0825 g of FaSSIF medium solution and 48.055 g of ultrapure water were weighed into a 50-mL beaker, and 0.112 g of FaSSIF/FeSSIF/FaSSGF powder was then added to the beaker. The mixture was stirred to dissolve the powder, and the solution was then equilibrated by standing for 2 h before use (the solution should be used within 48 h). […]
3.1. […] 10 μL of the stock solution (concentration 10 mM, dissolved in DMSO) was precisely measured out and well mixed with 990 μL of an organic solvent mixture (usually DMSO:acetonitrile:ethanol=1:1:1) in a 2-mL sample flask to form a 100 μM clear sample solution. […]

SMILES: COc1c([C@H]2[C@H](C(=O)Nc3ccnc(C(=N)N)c3)O[C@@](C)(C(F)(F)F)[C@H]2C)ccc(F)c1F [Example 20, (2R,3S,4S,5R)—N-(2-Carbamimidoylpyridin-4-yl)-3-(3,4-difluoro-2-methoxyphenyl)-4,5-dimethyl-5-(trifluoromethyl)tetrahydrofuran-2-carboxamide]
- IC50 [1]: 0.24 nM
- solubility at 24 h ([2]; FassIF solution, read-out: Solubility in FassIF solution): 308 µM (≈ 145 µg/mL)
- solubility at 24 h ([2]; FessIF solution, read-out: Solubility in FessIF solution): 2410 µM (≈ 1140 µg/mL)
